Consider 13 molecules from ChEMBL document CHEMBL1201862, “PubChem BioAssay data set” (2004).

What is called IC50 is the concentration needed to halve the response being measured. The EC50 is the concentration that produces a half-maximal response. As a reminder, the AC50 is the concentration at which the activity in the assay is half-maximal.

One assay has as its target T1, Hexokinase (Trypanosoma brucei, UniProt Q38C41).
T1 sequence (Q38C41 whole entry): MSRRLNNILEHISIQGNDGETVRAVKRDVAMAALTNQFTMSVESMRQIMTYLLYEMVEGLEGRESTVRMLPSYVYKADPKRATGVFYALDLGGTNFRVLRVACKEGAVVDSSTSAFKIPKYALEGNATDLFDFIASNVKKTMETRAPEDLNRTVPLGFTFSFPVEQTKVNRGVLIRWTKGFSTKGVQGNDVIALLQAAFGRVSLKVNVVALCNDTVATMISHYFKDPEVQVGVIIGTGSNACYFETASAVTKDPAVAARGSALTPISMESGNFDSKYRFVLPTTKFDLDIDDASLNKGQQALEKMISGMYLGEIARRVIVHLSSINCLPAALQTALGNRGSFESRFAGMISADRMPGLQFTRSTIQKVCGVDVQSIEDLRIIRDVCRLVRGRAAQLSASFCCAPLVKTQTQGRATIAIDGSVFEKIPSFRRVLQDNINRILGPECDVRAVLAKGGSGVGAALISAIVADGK
Put plainly: Confirmation assay for inhibitors of Trypanosoma brucei hexokinase 1-Analogue-first series. [Related pubchem assays (depositor defined):AID1430, AID1632, AID2516, AID2560, AID2579, AID2600, AID449725, AID492951]. The assay is classed as functional.

Assay [1] addresses T2, Voltage-gated N-type calcium channel alpha-1B subunit/Amyloid beta A4 precursor protein-binding family A member 1 (Homo sapiens, UniProt Q00975+Q02410). The assay is classed as protein assay.
Assay [2] concerns the target T2, Voltage-gated N-type calcium channel alpha-1B subunit/Amyloid beta A4 precursor protein-binding family A member 1. The assay is classed as protein assay. This is another data set of the same source.
Assay [3] has as its target T3, Heat shock factor protein 1 (Mus musculus, UniProt P38532).
T3 sequence (P38532 whole entry): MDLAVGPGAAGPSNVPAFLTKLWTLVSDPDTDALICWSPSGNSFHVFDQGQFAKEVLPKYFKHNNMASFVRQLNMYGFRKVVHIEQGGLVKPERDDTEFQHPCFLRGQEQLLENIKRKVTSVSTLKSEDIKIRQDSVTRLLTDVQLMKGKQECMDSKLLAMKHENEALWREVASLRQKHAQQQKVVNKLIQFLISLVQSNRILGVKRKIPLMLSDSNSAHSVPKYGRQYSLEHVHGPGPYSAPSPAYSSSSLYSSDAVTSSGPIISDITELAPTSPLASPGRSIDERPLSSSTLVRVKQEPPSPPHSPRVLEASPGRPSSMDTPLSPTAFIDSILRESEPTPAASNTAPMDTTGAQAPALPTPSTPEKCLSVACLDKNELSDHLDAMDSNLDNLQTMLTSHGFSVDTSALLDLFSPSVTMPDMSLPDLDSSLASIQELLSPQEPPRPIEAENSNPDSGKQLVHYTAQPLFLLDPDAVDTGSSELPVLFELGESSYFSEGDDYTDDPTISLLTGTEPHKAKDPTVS
Nature of the assay: HSF1 potentiators in luciferase reporter cells, confirmation, cell-based, NIH3T3, luminescence, dose retest (AID 435004).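 Also: stress induced by proteasome inhibitor MG132 added 30 min after compound; luciferase reporter driven by HSF1 response element in NIH3T3 cells; actives raise luminescence as potentiators of the MG132 stress response.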 It counts as functional. In general terms: A reporter such as luciferase makes a cellular process visible.

Assay [4] concerns the target T4, Microphthalmia-associated transcription factor (Homo sapiens, UniProt O75030).
T4 sequence (O75030 whole entry): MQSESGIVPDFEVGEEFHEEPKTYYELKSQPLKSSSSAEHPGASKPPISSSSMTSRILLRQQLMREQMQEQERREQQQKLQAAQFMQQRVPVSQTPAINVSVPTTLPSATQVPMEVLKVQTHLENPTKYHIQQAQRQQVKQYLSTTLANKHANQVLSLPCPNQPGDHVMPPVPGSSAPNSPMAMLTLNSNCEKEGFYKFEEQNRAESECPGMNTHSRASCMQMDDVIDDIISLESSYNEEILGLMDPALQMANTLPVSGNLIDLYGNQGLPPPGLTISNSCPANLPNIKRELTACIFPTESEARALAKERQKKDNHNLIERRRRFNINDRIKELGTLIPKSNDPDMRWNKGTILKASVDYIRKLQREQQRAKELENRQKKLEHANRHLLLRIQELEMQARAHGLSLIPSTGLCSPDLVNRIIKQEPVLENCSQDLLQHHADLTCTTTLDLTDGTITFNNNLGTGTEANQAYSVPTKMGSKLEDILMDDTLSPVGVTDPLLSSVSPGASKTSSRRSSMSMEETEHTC
Nature of the assay: TRPM1 promoter luciferase signal decrease, dose response, MITF inhibitor project, cell-based, SK-MEL-5, cherry-picked, set 3 (AID 493073).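 Also: SK-MEL-5 melanoma cells with luciferase driven by the MITF target TRPM1 promoter.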 The assay is classed as functional.

The target in assay [5] is Glyceraldehyde-3-phosphate dehydrogenase (Homo sapiens, UniProt P04406).
Chain of Glyceraldehyde-3-phosphate dehydrogenase (P04406 whole entry): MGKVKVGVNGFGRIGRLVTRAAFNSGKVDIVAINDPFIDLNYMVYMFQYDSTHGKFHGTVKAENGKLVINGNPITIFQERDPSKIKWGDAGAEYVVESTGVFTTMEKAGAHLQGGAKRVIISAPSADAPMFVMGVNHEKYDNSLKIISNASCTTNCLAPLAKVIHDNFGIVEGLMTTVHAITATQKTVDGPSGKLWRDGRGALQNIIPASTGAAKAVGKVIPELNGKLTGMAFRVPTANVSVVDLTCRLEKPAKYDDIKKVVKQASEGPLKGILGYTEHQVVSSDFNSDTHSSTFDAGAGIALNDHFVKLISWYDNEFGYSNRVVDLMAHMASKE
For assay [6], the target named is T5, Alkaline phosphatase, tissue-nonspecific isozyme (Homo sapiens, UniProt P05186).
T5 sequence (P05186 whole entry): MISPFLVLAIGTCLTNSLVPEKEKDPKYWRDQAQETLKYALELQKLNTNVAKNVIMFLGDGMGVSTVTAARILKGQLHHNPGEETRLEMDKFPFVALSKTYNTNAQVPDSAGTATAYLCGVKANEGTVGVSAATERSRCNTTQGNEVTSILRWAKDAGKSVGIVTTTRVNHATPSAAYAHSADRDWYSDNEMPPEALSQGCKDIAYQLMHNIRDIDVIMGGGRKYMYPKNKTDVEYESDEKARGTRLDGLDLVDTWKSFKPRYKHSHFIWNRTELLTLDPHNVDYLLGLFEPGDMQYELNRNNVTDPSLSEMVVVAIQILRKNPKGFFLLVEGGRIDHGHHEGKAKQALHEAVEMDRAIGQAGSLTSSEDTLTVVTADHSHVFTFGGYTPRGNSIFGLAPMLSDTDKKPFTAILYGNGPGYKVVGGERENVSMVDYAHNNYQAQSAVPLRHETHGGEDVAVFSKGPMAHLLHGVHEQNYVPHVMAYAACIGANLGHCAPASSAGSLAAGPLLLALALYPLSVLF
Nature of the assay: human TNAP enzyme inhibitors, SAR follow-up, biochemical, luminescent, dose response (AID 1056).

Assay [7] addresses T6, E3 ubiquitin-protein ligase XIAP (Homo sapiens, UniProt P98170). Put plainly: Counter Screen using XIAP-Bir3 for Chemical Antagonists of Bir1/2 domains of IAP-family anti-apoptotic proteins. [Related pubchem assays (depositor defined):AID1018, AID1449, AID1514, AID1638, AID1749, AID1750, AID488957, AID488963].
Assay [8] deals with T6, E3 ubiquitin-protein ligase XIAP. Put plainly: XIAP antagonists, biochemical, IAP family, fluorescence polarization (AID 1018). It counts as functional.
Assay [9] addresses T7, SUMO-activating enzyme (Homo sapiens, UniProt Q9UBT2). Nature of the assay: SUMOylation inhibitor hit validation, confirmation, SUMOylation inhibitor project, biochemical, AlphaScreen (AID 2018). The assay is classed as functional.
In assay [10] the target is T7, SUMO-activating enzyme. Put plainly: inhibitors of in vitro SUMOylation cascade, primary screen, biochemical, HTRF, uHTS (AID 2006). The assay is classed as protein-complex assay. Background: Time-resolved FRET reads energy transfer from a long-lived donor to a nearby acceptor.
Assay [11] can be described thus: Luminescence Cell-Based Dose Retest to Confirm Inhibitors of Cancer Stem Cells. [Related pubchem assays (depositor defined):AID2717, AID2721]. It counts as functional. The settings on record: Homo sapiens.
The target of assay [12] is DNA dC->dU-editing enzyme APOBEC-3A (Homo sapiens, UniProt P31941). Put plainly: APOBEC3A DNA deaminase inhibitors, dose response, biochemical (AID 504722). The assay is classed as functional.
Assay [13] addresses DNA dC->dU-editing enzyme APOBEC-3G (Homo sapiens, UniProt Q9HC16). Put plainly: Dose Response confirmation of small molecule APOBEC3G DNA Deaminase Inhibitors via a fluorescence-based single-stranded DNA deaminase assay. [Related pubchem assays (depositor defined):AID493012, AID493028]. It counts as functional.
Assay [14] has as its target T8, Rac GTPase-activating protein 1 (Homo sapiens, UniProt Q9H0H5).
T8 sequence (Q9H0H5 whole entry): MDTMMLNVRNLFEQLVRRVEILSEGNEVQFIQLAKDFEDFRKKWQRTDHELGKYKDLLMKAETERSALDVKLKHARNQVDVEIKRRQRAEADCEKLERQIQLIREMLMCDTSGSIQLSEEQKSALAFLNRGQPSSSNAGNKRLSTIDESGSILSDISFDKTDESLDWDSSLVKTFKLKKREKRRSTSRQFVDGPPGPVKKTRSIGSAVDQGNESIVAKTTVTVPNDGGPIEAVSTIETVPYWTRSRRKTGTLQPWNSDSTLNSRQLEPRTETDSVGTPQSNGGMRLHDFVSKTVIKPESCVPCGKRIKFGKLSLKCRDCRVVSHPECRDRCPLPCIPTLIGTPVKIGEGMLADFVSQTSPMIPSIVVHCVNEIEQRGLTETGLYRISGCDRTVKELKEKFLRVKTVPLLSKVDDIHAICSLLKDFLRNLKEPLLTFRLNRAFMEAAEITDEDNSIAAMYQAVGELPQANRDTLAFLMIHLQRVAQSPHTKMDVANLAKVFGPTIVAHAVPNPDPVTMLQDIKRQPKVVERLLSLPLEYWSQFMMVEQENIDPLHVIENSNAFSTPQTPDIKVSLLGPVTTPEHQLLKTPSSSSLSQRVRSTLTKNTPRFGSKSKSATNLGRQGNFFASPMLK
Nature of the assay: MgcRacGAP GTPase-activating activity inhibitors, confirmation, biochemical, ADP Hunter fluorescence, primary and confirmatory (AID 624330). It counts as functional.

Active and inactive are the calls of the source. Rule as the data show it, for most assays here: actives have a measured IC50 and inactives only a lower limit. Some results are limits rather than exact numbers.

T6 sequence (P98170 whole entry): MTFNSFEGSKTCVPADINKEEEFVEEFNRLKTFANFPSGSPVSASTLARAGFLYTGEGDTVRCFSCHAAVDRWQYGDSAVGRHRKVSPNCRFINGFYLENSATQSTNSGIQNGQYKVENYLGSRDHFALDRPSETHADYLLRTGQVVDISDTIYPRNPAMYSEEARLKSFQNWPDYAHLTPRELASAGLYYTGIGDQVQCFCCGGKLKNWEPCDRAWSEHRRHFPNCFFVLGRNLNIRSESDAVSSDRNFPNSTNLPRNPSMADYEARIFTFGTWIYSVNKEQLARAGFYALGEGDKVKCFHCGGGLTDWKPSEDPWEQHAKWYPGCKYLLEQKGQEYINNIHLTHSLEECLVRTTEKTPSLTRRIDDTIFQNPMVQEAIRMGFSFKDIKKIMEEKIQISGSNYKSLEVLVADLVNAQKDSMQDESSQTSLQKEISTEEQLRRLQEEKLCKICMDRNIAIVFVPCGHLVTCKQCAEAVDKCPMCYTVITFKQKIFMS
T7 sequence (Q9UBE0 whole entry): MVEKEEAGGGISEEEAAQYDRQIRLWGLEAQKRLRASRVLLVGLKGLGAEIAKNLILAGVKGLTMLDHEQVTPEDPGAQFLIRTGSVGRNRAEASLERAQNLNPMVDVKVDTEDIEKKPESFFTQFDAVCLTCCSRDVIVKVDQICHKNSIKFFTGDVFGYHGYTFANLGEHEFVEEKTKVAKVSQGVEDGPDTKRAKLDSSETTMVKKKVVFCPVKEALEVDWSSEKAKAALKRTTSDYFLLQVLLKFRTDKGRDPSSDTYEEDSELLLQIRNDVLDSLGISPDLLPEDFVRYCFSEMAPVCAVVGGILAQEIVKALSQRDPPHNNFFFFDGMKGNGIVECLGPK
T7 sequence (Q9UBT2 whole entry): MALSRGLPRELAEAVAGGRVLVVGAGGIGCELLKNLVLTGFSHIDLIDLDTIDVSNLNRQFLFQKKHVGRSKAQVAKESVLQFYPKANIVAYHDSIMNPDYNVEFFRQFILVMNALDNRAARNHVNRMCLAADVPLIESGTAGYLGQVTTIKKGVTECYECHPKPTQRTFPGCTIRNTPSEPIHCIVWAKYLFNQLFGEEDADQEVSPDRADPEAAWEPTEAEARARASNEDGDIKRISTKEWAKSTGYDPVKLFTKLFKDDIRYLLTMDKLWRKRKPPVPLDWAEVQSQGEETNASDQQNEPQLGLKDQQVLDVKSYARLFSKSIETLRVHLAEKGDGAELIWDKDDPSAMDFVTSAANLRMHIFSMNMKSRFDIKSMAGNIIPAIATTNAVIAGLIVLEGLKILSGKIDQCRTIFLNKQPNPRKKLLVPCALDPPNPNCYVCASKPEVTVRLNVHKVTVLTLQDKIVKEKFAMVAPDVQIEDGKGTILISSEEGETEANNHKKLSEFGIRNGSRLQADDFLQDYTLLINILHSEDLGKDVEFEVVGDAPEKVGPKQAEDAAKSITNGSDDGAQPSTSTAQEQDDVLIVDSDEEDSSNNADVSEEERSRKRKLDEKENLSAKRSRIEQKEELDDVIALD
T2 sequence (Q00975 whole entry): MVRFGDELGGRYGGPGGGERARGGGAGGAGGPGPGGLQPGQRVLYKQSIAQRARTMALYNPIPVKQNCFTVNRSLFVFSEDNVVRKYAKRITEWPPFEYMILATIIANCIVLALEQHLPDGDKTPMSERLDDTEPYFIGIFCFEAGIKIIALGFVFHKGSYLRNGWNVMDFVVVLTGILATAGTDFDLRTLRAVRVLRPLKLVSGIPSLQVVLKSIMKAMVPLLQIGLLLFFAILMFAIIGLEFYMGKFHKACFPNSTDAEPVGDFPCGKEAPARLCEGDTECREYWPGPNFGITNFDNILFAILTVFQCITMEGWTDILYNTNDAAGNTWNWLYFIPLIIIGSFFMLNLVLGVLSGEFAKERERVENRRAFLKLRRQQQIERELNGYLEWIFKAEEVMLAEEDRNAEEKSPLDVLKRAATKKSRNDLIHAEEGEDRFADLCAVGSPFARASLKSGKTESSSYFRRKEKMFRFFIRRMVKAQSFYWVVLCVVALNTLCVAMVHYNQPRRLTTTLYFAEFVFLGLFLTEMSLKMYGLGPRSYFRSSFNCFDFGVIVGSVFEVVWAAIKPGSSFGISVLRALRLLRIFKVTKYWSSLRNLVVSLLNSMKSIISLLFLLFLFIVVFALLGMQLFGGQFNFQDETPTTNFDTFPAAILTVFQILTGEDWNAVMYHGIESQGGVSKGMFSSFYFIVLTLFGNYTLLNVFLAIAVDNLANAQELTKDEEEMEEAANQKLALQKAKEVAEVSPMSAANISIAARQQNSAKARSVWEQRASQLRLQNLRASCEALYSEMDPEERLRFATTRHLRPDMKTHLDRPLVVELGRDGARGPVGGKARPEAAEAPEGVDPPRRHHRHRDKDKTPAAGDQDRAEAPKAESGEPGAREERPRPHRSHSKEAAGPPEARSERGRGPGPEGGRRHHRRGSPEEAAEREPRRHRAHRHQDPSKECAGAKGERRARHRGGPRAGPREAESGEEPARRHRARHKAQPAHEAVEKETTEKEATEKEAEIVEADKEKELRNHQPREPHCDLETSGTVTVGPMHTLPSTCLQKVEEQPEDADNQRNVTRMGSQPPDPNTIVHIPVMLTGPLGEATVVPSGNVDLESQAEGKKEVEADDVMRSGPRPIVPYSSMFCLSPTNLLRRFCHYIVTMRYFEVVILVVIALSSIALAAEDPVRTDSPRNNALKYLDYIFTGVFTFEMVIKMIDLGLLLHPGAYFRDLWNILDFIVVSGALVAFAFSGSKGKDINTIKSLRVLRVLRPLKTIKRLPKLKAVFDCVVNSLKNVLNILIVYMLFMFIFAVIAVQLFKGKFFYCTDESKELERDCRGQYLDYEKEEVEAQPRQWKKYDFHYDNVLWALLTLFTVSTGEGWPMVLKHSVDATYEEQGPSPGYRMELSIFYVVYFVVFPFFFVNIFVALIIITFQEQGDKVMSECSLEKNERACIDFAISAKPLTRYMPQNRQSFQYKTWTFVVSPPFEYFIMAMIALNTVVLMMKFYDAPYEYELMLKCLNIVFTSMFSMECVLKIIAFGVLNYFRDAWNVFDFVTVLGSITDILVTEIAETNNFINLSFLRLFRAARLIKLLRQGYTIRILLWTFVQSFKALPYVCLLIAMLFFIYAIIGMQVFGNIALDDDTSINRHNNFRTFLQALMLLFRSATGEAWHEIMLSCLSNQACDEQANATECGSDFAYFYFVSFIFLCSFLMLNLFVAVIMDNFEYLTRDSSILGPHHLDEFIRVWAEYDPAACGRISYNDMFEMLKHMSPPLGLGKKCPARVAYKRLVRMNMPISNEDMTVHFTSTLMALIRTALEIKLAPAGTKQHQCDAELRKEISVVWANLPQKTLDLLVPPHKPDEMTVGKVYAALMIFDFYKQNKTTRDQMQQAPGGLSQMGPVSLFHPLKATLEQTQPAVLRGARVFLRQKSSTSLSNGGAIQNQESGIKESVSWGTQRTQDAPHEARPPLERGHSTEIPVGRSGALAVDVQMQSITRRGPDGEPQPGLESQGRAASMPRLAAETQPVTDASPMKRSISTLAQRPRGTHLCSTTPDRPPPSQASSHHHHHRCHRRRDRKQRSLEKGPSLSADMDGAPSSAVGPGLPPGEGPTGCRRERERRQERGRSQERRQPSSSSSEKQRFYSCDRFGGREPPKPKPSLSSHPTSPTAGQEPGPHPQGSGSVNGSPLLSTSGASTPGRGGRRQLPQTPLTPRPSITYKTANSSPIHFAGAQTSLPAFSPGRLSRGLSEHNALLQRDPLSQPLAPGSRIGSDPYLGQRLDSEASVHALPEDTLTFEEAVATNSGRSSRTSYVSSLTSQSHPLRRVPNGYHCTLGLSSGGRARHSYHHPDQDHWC
T2 sequence (Q02410 whole entry): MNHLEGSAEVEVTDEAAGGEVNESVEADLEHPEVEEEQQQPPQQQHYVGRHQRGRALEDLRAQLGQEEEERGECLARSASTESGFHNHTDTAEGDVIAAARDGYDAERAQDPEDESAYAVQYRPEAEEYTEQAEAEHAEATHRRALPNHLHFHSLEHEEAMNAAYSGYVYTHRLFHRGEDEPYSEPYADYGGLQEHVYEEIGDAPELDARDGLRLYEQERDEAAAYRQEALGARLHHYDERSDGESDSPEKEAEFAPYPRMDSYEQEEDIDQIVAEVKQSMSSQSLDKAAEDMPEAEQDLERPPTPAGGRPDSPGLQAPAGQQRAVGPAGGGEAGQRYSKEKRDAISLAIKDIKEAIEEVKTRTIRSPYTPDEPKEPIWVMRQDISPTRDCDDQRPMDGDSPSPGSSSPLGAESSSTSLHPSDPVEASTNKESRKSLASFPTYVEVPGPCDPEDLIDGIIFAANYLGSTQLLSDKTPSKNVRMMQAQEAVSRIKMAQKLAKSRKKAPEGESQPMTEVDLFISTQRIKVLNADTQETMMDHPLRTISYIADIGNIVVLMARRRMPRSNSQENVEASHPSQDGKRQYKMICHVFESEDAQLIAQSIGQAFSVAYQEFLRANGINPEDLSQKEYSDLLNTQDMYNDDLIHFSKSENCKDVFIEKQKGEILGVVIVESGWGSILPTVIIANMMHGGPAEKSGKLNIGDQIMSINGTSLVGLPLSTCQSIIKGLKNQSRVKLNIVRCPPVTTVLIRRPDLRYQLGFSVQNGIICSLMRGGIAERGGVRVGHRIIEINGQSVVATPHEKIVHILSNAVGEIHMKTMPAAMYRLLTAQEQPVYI

In the case of `CC(C)c1cccc(C(=O)Nc2cc(Cl)ccc2C(=O)O)c1`, the IC50 on Hexokinase is > 25 µM (inactive).

For `CCOc1cc(/C=C\[N+](=O)[O-])ccc1OCC(=O)N1CCOCC1`, the concentration for half-maximal inhibition (IC50) in assay [1] is 9.89 µM (active); in assay [2], 29.4 µM (active). In addition, the EC50 in assay [3] was 11 µM (active). Further, the concentration at half-maximal activity (AC50) in [4] was 7.35 µM (active).

For the molecule `COC(=O)c1cc(-c2ccc3ccccc3c2)[nH]n1`, the IC50 in [5] is > 100 µM (not active); in assay [6], 0.6 µM (active).

On to `C/C(Cn1nnc([N+](=O)[O-])n1)=N\NC(=O)c1ccc(C)cc1`, for which the figures for the IC50 in [7] and in [8] were > 100 µM (inactive) and > 100 µM (not active), respectively.

With `O=C1C(C2=NC(c3ccccn3)C3C(=O)N(c4ccc(Cl)cc4Cl)C(=O)C23)=C(O)c2ccccc21` (configuration not stated), the half-inhibitory concentration (IC50) on SUMO-activating enzyme [9] was 34.6 µM (active); at SUMO-activating enzyme [10] it was 15 µM (active). Moreover, the AC50 in assay [11] was 13.6 µM (active).

As to `COc1ccc(OC)c(S(=O)(=O)n2cc(C(N)=O)c3ccccc32)c1`, the IC50 in assay [5] was > 100 µM (not active); in assay [6], > 100 µM (inactive).

Take `Cc1ccccc1S(=O)(=O)Nc1nc2ccccc2nc1Cl`: the IC50 was > 100 µM (not active) in assay [5] and > 100 µM (inactive) in assay [6].

Regarding `N#Cc1c(=O)c2nc(NCc3ccccc3)ncc2n2ccccc12`, at SUMO-activating enzyme [9], the IC50 is 14.3 µM (active).

In the case of `Cc1ccc(N(CC(O)COCc2ccco2)S(=O)(=O)c2ccc(C)cc2)cc1` (configuration not stated), the figures for the IC50 in assay [1] and in assay [2] were 28 µM (active) and > 50 µM (inactive), respectively.

Consider `c1c(CN2CCCCC2)n[nH]c1C1CCCCC1`, for which the IC50 is > 100 µM (inactive) in assay [7] and > 100 µM (not active) in assay [8].

With `CN1CCN(C(=O)Cc2nc3ccccc3[nH]2)CC1`, the IC50 in [7] was > 100 µM (inactive); in assay [8], > 100 µM (not active).

As for `O=C(Nc1nnc(S)s1)c1ccco1`, the IC50 in assay [12] was > 100 µM (inactive); in assay [13], 5.51 µM (active); in assay [14] it was 102 µM (active).

Consider `COc1ccc(CC(=O)Nc2cc(Cl)ccc2C(=O)O)cc1`, for which the IC50 at Hexokinase is > 25 µM (inactive).
